Reference: patent publication US6350764B2, “Heteroaryl aminoguanidines and alkoxyguanidines and their use as protease inhibitors” (3-Dimensional Pharmaceuticals, Inc., priority 1997, dated 2002)
Structures can show the parent of a compound that is named as a salt.

Legend:
Format in all cases: biochemical
human factor Xa = target: T1, human factor Xa (Homo sapiens, UniProt P00742); assay: In vitro inhibition of purified enzymes: Factor X [FXa], hydrolysis of N-benzoyl-Ile-Glu-Gly-Arg-p-nitroanilide; details: for Ki: 37° C., pH 7.5
T1 construct: purchased Enzyme Research Laboratories (South Bend)
Text: (§1) Reagents: All buffer salts were obtained from Sigma Chemical Company (St. Louis, Mo.), and were of the highest purity available. The enzyme substrates, N-benzoyl-Phe-Val-Arg-p-nitroaniide (Sigma B7632) N-benzoyl-Ile-Glu-Gly-Arg-p-nitroanilide hydrochloride (Sigma B2291), N-p-Tosyl-Gly-Pro-Lys-p-nitroanilide (Sigma T6140), N-succinyl-Ala-Ala-Pro-Phe-p-nitroanilide (Sigma S7388) and N-CBZ-Val-Gly-Arg-p-nitroanilide (Sigma C7271) were obtained from Sigma. N-succinyl-Ala-Ala-Pro-Arg-p-nitroanilide (BACHEM L-1720) and N-succinyl-Ala-Ala-Pro-Val-p-nitroanilide (BACHEM L-1770) were obtained from BACHEM (King of Prussia, Pa.).
(§2) Human α-thrombin, human factor Xa and human plasmin were obtained from Enzyme Research Laboratories (South Bend, Id.). Bovine α-chymotrypsin (Sigma C4129), bovine trypsin (Sigma T8642) and human kidney cell urokinase (Sigma U5004) were obtained from Sigma. Human leukocyte elastase was obtained from Elastin Products (Pacific, Mo.).
(§3) Ki Determinations: All assays are based on the ability of the test compound to inhibit the enzyme catalyzed hydrolysis of a peptide p-nitroanilide substrate. In atypical Ki determination, substrate is prepared in DMSO, and diluted into an assay buffer consisting of 50 mM HEPES, 200 mM NaCl, pH 7.5. The final concentrations for each of the substrates is listed below. In general, substrate concentrations are lower than the experimentally determined value for Km. Test compounds are prepared as a 1.0 mg/ml solution in DMSO. Dilutions are prepared in DMSO yielding 8 final concentrations encompassing a 200 fold concentration range. Enzyme solutions are prepared at the concentrations listed below in assay buffer.
(§4) In a typical Ki determination, into each well of a 96 well plate is pipetted 280 mL of substrate solution, 10 mL of test compound solution, and the plate allowed to thermally equilibrate at 37° C. in a Molecular Devices plate reader for>15 minutes. Reactions were initiated by the addition of a […] aliquot of enzyme and the absorbance increase at 405 nm is recorded for 15 minutes. Data corresponding to less than 10% of the total substrate hydrolysis were used in the calculations. The ratio of the velocity (rate of change in absorbance as a function of time) for a sample containing no test compound is divided by the velocity of a sample containing test compound, and is plotted as a function of test compound concentration. The data are fit to a linear regression, and the value of the slope of the line calculated. The inverse of the slope is the experimentally determined Ki value.
Factor X [FXa]: FXa activity was assessed as the ability to hydrolyze the substrate N-benzoyl-Ile-Glu-Gly-Arg-p-nitroanilide hydrochloride. […] Final DMSO concentration was 4.3%. Purified activated human Factor X was diluted into assay buffer to a concentration of 300 nM. Final reagent concentrations were: [FXa]=10 nM, [N-benzoyl-Ile-Glu-Gly-Arg-p-nitroanilide hydrochloride]=51 mM.

bovine trypsin = target: T2, bovine trypsin (Bos taurus, UniProt P00760); assay: In vitro inhibition of purified enzymes: trypsin, hydrolysis of N-benzoyl-Phe-Val-Arg-p-nitroanilide; details: for Ki: 37° C., pH 7.5
T2 construct: Purified bovine trypsin was diluted into assay buffer; purchased Sigma T8642
T2 sequence (P00760 24-246): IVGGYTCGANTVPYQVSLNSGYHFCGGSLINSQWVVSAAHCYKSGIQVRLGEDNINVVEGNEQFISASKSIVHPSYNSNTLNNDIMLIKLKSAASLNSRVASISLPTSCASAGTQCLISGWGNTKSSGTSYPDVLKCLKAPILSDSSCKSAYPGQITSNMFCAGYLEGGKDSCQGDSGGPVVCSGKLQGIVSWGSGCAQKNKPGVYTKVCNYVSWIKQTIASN
Text: as §1, §2, §3, §4
Trypsin: Trypsin activity was assessed as the ability to hydrolyze N-benzoyl-Phe-Val-Arg-p-nitroanilide. […] Final DMSO concentration was 4.3%. Purified bovine trypsin was diluted into assay buffer to a concentration of 120 nM. Final reagent concentrations were: [Trypsin]=4 nM, [N-benzoyl-Phe-Val-Arg-p-nitroanilide]=13 mM.

human plasmin = target: T3, human plasmin (Homo sapiens, UniProt P00747); assay: In vitro inhibition of purified enzymes: plasmin, hydrolysis of N-p-Tosyl-Gly-Pro-Lys-p-nitroanilide
T3 construct: Purified human plasmin was diluted into assay buffer; purchased Enzyme Research Laboratories (South Bend)
Text: as §1, §2, §3, §4
Plasmin: Plasmin activity was assessed as the ability to hydrolyze the N-p-Tosyl-Gly-Pro-Lys-p-nitroanilide. Substrate solutions were prepared at a concentration of 37 mM (37 mM<<Km=243 mM) in assay buffer. Final DMSO concentration was 4.3%. Purified human plasmin was diluted into assay buffer to a concentration of 240 nM. Final reagent concentrations were: [Plasmin]=8 nM, [N-p-Tosyl-Gly-Pro-Lys-p-nitroanilide]=37 mM.

human leukocyte elastase = target: T4, human leukocyte elastase (Homo sapiens, UniProt P08246); assay: In vitro inhibition of purified enzymes: elastase, hydrolysis of N-succinyl-Ala-Ala-Pro-Val-p-nitroanilide; details: for inhibition at 18 µM: at 18,000 nM
T4 construct: purchased Elastin Products (Pacific, Mo.)
T4 sequence (P08246 30-247 limits assumed): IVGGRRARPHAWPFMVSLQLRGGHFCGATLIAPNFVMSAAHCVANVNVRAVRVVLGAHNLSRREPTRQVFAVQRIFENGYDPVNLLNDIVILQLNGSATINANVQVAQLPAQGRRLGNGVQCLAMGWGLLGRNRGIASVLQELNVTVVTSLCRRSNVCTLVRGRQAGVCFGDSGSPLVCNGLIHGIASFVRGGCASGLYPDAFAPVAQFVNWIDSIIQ
Text: as §1, §2, §3, §4
Elastase: Elastase activity was assessed as the ability to hydrolyze N-succinyl-Ala-Ala-Pro-Val-p-nitroanilide. Substrate solutions were prepared at a concentration of 19 mM (19 mM<<Km=89 mM) in assay buffer. Final DMSO concentration was 4.3%. Purified human leukocyte elastase was diluted into assay buffer to a concentration of 750 nM. Final reagent concentrations were: [Elastase]=25 nM, [N-succinyl-Ala-Ala-Pro-Val-p-nitroanilide]=19 mM.

human α-thrombin = target: T5, human α-thrombin (Homo sapiens, UniProt P00734); assay: In vitro inhibition of purified enzymes: thrombin, hydrolysis of N-succinyl-Ala-Ala-Pro-Arg-p-nitroanilide; details: 37° C., pH 7.5
T5 construct: Purified human a-thrombin was diluted into assay buffer; purchased Enzyme Research Laboratories (South Bend)
Text: as §1, with “Sigma.” for “Sigma. N-succinyl-Ala-Ala-Pro-Arg-p-nitroanilide (BACHEM L-1720) and N-succinyl-Ala-Ala-Pro-Val-p-nitroanilide (BACHEM L-1770) were obtained from BACHEM (King of Prussia, Pa.).”
as §2
as §3, with “In atypical Ki determination, substrate is prepared in DMSO, and diluted into an assay buffer consisting of 50 mM HEPES, 200 mM NaCl, pH 7.5.” left out
as §4, with “Reactions” for “In a typical Ki determination, into each well of a 96 well plate is pipetted 280 mL of substrate solution, 10 mL of test compound solution, and the plate allowed to thermally equilibrate at 37° C. in a Molecular Devices plate reader for>15 minutes. Reactions”
Thrombin: Thrombin activity was assessed as the ability to hydrolyze the substrate N-succinyl-Ala-Ala-Pro-Arg-p-nitroanilide. […] Final reagent concentrations were: [thrombin]=0.5 nM, [substrate N-succinyl-Ala-Ala-Pro-Arg-p-nitroanilide]=32 mM.

bovine α-chymotrypsin = target: T6, bovine α-chymotrypsin (Bos taurus, UniProt P00766); assay: In vitro inhibition of purified enzymes: chymotrypsin, hydrolysis of N-succinyl-Ala-Ala-Pro-Phe-p-nitroanilide
T6 construct: Bovine α-chymotrypsin (Sigma C4129); purchased Sigma C4129
Text: as §1, §2, §3, §4
Chymotrypsin: Chymotrypsin activity was assessed as the ability to hydrolyze N-succinyl-Ala-Ala-Pro-Phe-p-nitroanilide. […] Final DMSO concentration was 4.3%. Purified bovine chymotrypsin was diluted into assay buffer to a concentration of 81 nM. Final reagent concentrations were: [Chymotrypsin]=2.7 nM, [N-succinyl-Ala-Ala-Pro-Phe-p-nitroanilide]=14 mM.

T1 sequence (P00742 235-488 limits assumed): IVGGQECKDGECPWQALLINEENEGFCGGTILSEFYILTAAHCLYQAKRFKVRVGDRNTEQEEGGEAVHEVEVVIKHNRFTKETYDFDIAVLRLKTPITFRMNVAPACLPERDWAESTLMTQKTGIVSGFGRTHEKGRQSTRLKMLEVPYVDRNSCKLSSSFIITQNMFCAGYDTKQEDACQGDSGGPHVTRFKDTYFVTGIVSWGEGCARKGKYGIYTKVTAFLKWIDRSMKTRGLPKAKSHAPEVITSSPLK
T1 sequence (P00742 41-179 partner limits assumed): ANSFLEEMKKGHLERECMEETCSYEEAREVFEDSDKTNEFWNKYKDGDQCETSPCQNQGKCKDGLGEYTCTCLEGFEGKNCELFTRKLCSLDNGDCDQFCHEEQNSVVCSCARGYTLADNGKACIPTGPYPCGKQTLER
T3 sequence (P00747 581-810 limits assumed): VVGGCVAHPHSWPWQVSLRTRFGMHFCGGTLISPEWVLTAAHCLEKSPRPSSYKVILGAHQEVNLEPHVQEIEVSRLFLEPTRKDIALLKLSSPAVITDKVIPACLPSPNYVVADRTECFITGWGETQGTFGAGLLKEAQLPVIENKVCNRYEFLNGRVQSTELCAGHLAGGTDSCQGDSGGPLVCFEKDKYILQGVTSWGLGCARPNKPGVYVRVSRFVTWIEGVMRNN
T3 sequence (P00747 97-580 partner limits assumed): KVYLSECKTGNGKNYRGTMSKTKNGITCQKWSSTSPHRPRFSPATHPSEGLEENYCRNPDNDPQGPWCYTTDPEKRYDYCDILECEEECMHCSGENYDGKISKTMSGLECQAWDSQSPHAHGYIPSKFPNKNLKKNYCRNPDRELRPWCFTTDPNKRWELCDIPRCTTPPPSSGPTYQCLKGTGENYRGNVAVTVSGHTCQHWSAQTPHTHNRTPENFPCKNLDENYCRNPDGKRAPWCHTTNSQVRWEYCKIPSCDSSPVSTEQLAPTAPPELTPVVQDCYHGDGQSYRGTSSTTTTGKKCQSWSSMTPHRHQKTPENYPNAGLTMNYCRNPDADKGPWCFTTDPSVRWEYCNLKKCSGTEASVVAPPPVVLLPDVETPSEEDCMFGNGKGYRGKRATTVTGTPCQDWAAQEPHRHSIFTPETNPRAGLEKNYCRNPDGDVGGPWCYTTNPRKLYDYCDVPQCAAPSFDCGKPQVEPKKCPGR

SMILES: Cc1ccc(NS(=O)(=O)Cc2ccccc2)c(=O)n1CC(=O)NCCCONC(=N)N.O=C(O)C(F)(F)F [Example 1, 3-Benzylsulfonylamino-6-methyl-1-[(3-guanidinooxypropyl)aminocarbonylmethyl]-2-pyridinone trifluorocaetate]
- % Inhibition FXa (human factor Xa; at 24,000 nM): 0 @ %
- % Inhibition Trypsin (bovine trypsin; at 24,000 nM): 0 @ %
- % Inhibition Plasmin (human plasmin; at 24,000 nM): 0 @ %
- % Inhibition Elastase (human leukocyte elastase; at 24,000 nM): 0 @ %
- Ki (human α-thrombin): 53 nM
- % Inhibition Chymo. (bovine α-chymotrypsin; at 24,000 nM): 0 @ %

SMILES: Cc1ccc(NS(=O)(=O)c2ccccc2[N+](=O)[O-])c(=O)n1CC(=O)NCCONC(=N)N [Example 71, 3-(2-Nitrophenylsulfonyl)amino-6-methyl-1-[(2-guanidinooxyethyl)aminocarbonylmethyl]-2-pyridinone trifluoroacetate]
- Ki (human factor Xa): 8700 nM
- inhibition at 12 µM (bovine trypsin; at 12,000 nM): 0%
- inhibition at 12 µM (human plasmin; at 12,000 nM): 0%
- inhibition at 12 µM (human leukocyte elastase; at 12,000 nM): 0%
- Ki (human α-thrombin): 580 nM
- inhibition at 12 µM (bovine α-chymotrypsin; at 12,000 nM, read-out: % Inhibition Chymo.): 0%

SMILES: Cc1ccc(NS(=O)(=O)c2ccc3cc(Cl)ccc3c2)c(=O)n1CC(=O)NCCONC(=N)N [Example 85, 3-(6-Chloronaphthalene-2-sulfonyl)amino-6-methyl-1-[(2-guanidinooxyethyl)aminocarbonylmethyl]-2-pyridinone trifluoroacetate]
- Ki (human factor Xa): 1300 nM
- Ki (bovine trypsin): 1600 nM
- inhibition at 18 µM (human plasmin; at 18,000 nM): 0%
- inhibition at 18 µM (human leukocyte elastase): 0%
- Ki (human α-thrombin): 290 nM
- inhibition at 18 µM (bovine α-chymotrypsin; at 18,000 nM, read-out: % Inhibition Chymo.): 0%

SMILES: Cc1ccc(NS(=O)(=O)Cc2ccccc2)c(=O)n1CC(=O)NCCONC(=N)N [Example 2, 3-Benzylsulfonylamino-6-methyl-1-[(2-guanidinooxyethyl)aminocarbonylmethyl]-2-pyridinone trifluoroacetate]
- Ki (human factor Xa): 24000 nM
- inhibition at 24.5 µM (bovine trypsin; at 24,500 nM): 0%
- inhibition at 24.5 µM (human plasmin; at 24,500 nM): 0%
- inhibition at 24.5 µM (human leukocyte elastase; at 24,500 nM): 0%
- Ki (human α-thrombin): 7.9 nM
- Ki (bovine α-chymotrypsin; 37° C., pH 7.5, read-out: Ki Chymo.): 14000 nM

SMILES: Cc1ccc(NS(=O)(=O)Cc2ccccc2)c(=O)n1CC(=O)N1CCC(ONC(=N)N)CC1 [Example 8, 3-(Benzylsulfonyl)amino-6-methyl-1-[(4-guanidinooxy)piperidinylcarbonylmethyl]-2-pyridinone trifluoroacetate]
- inhibition at 56 µM (bovine trypsin; at 56,000 nM): 0%
- inhibition at 56 µM (human leukocyte elastase; at 56,000 nM): 0%
- Ki (human α-thrombin): 43 nM

SMILES: Cc1ccc(NS(=O)(=O)Cc2ccc(Cl)c(Cl)c2)c(=O)n1CC(=O)NCCONC(=N)N [Example 24, 3-(3,4-Dichlorobenzylsulfonyl)amino-6-methyl-1-[(2-guanidinooxyethyl)aminocarbonylmethyl]-2-pyridinone trifluoroacetate]
- Ki (human factor Xa): 2200 nM
- Ki (bovine trypsin): 7600 nM
- inhibition at 18 µM (human leukocyte elastase): 0%
- Ki (human α-thrombin): 2 nM

SMILES: N=C(N)NOCCNC(=O)Cn1cccc(NS(=O)(=O)Cc2ccccc2)c1=O [Example 4, 3-Benzylsulfonylamino-1-[(2-guanidinooxyethyl)aminocarbonylmethyl]-2-pyridinone trifluoroacetate]
- Ki (human factor Xa): 7900 nM
- inhibition at 79 µM (human leukocyte elastase; at 79,000 nM): 0%
- Ki (human α-thrombin): 29 nM

SMILES: Cc1cccc(S(=O)(=O)Nc2ccc(C)n(CC(=O)NCCONC(=N)N)c2=O)c1 [Example 5, 3-(3-Methylphenylsulfonyl)amino-6-methyl-1-[(2-guanidinooxyethyl)aminocarbonylmethyl]-2-pyridinone trifluoroacetate]
- inhibition at 24.6 µM (bovine trypsin; at 24,600 nM): 0%
- inhibition at 24.6 µM (human plasmin; at 24,600 nM): 0%
- inhibition at 24.6 µM (human leukocyte elastase; at 24,600 nM): 0%
- inhibition at 24.6 µM (bovine α-chymotrypsin; at 24,600 nM, read-out: % Inhibition Chymo.): 0%

SMILES: COc1ccc(Br)cc1S(=O)(=O)Nc1ccc(C)n(CC(=O)NCCONC(=N)N)c1=O [Example 55, 3-(3-Bromo-6-methoxyphenylsulfonyl)amino-6-methyl-1-[(2-guanidinooxyethyl)aminocarbonylmethyl]-2-pyridinoine trifluoroacetate]
- Ki (human factor Xa): 2100 nM
- Ki (bovine trypsin): 2300 nM
- Ki (human α-thrombin): 220 nM

SMILES: Cc1ccc(NS(=O)(=O)Cc2ccc(Cl)cc2)c(=O)n1CC(=O)NCCONC(=N)N [Example 16, 3-(4-Chlorobenzylsulfonyl)amino-6-methyl-1-[(2-guanidinooxyethyl)aminocarbonylmethyl]-2-pyridinone trifluoroacetate]
- Ki (human factor Xa): 2200 nM
- Ki (bovine trypsin): 4000 nM
- inhibition at 19 µM (human leukocyte elastase; at 19,000 nM): 0%
- Ki (human α-thrombin): 2 nM
